ChEMBL document CHEMBL4673262, “Ginkgobilol, a new diarylpentanoid and an osteogenic diarylpentanoid analog from Ginkgo biloba leaves” (2020)
Active and inactive are the calls of the source. The rule behind the calls is not given here.

Legend:
[1] = Induction of osteogenic differentiation in mouse C3H10T1/2 cells assessed as increase in osteopontin mRNA expression at 40 uM by RT-qPCR analysis relative to control; format: functional, C3H 10T1/2
C3H 10T1/2 [2] = experiment: Induction of osteogenic differentiation in mouse C3H10T1/2 cells assessed as increase in alkaline phosphatase mRNA expression by RT-qPCR analysis relative to control; format: functional, cell-based
C3H 10T1/2 [3] = experiment: Induction of osteogenic differentiation in mouse C3H10T1/2 cells upto 40 uM assessed as osteoblast by measuring alkaline phosphatase after 10 days of differentiation relative to control; format: functional, cell-based; details: dose microM <=40, time 10.0 day
[4] = Induction of osteogenic differentiation in mouse C3H10T1/2 cells assessed as increase in alkaline phosphatase mRNA expression at 40 uM by RT-qPCR analysis relative to control; format: functional, C3H 10T1/2
C3H 10T1/2 [5] = experiment: Induction of osteogenic differentiation in mouse C3H10T1/2 cells assessed as increase in osteopontin mRNA expression by RT-qPCR analysis relative to control; format: functional, cell-based
C3H 10T1/2 [6] = experiment: Induction of osteogenic differentiation in mouse C3H10T1/2 cells assessed as osteoblast by measuring increase in alkaline phosphatase at 20 uM relative to control; format: functional, cell-based
C3H 10T1/2 [7] = experiment: Induction of osteogenic differentiation in mouse C3H10T1/2 cells assessed as increase in alkaline phosphatase mRNA expression at 5 uM by RT-qPCR analysis relative to control; format: functional, cell-based
C3H 10T1/2 [8] = experiment: Induction of osteogenic differentiation in mouse C3H10T1/2 cells assessed as increase in osteopontin mRNA expression at 5 uM by RT-qPCR analysis relative to control; format: functional, cell-based

**Q.** Which “fold change (FC)” value [1] does the source give for `Oc1ccc(/C=C\C/C=C\c2ccc(O)cc2)cc1` here?
**A.** Its value is 4.7.

**Q.** What about the Activity (C3H 10T1/2 [2]) of the same compound?
**A.** The Activity was “Dose-dependent effect”.

**Q.** What about the Activity (C3H 10T1/2 [3]) of the same compound?
**A.** The Activity was “Dose-dependent effect”.

**Q.** What about the “fold change (FC)” value [4] of the same compound?
**A.** Its value is 7.8.

**Q.** And the Activity (C3H 10T1/2 [5])?
**A.** The Activity was “Dose-dependent effect”.

**Q.** What about the Activity (C3H 10T1/2 [6]) of the same compound?
**A.** Its Activity is “Active”.

**Q.** For `CO[C@@H](c1ccc(O)cc1)[C@H](O)C/C=C\c1ccc(O)cc1`, which Activity (C3H 10T1/2 [6]) is on record?
**A.** The Activity was “inactive”.

**Q.** Which results are given for `COc1cc([C@H]2O[C@H](c3cc(OC)c(O)c(OC)c3)[C@@H](COC(=O)/C=C/c3ccc(O)cc3)[C@@H]2COC(=O)/C=C/c2ccc(O)cc2)cc(OC)c1O`?
**A.** Activity (C3H 10T1/2 [7]): Active; Activity (C3H 10T1/2 [8]): Active
